Key:
[1] = target: AncCDT-1; test: isothermal titration calorimetry; format: binding, synthetic construct; conditions: 20 mM Na2HPO4, 150 mM NaCl, pH 7.4, 25 °C; on-column refolded protein
[2] = target: Ws0279 (Wolinella succinogenes, UniProt Q7MAG0); test: biochemical; conditions: read-out: ΔTM
[3] = target: T1, Pu1068 (Candidatus Pelagibacter communis, UniProt Q4FLR5); test: intrinsic tryptophan fluorescence titration; format: binding
T1 sequence (Q4FLR5 19-255): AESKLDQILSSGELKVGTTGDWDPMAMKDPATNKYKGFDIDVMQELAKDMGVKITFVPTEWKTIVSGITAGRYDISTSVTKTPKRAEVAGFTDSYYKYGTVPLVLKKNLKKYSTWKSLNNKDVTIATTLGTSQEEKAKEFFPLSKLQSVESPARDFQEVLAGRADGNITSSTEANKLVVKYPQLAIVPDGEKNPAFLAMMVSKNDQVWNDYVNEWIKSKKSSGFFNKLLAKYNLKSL

Sequence of Ws0279 (Q7MAG0 24-258): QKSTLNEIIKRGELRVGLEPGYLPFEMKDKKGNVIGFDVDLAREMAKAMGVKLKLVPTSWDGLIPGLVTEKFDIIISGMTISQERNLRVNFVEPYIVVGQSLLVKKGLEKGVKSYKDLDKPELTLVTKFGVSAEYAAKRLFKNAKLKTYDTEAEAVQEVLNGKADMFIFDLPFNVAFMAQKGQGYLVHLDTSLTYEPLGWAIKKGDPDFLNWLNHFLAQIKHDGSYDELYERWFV

SMILES	Kd [1] [nM]	ΔTm at 10000 µM [2] [°C]	Kd [3] [nM]
N=C(N)NCCC[C@H](N)C(=O)O [L-arginine]	320		
N[C@@H](Cc1cnc[nH]1)C(=O)O [L-histidine]	2300		
NCCCC[C@H](N)C(=O)O [L-lysine]	6700	7.2	
NCCC[C@H](N)C(=O)O [L-ornithine]	1200		
C[N+]1(CCCS(=O)(=O)[O-])CCCCC1 [NDSB-221, 3-(1-methylpiperidinium-1-yl)propane-1-sulfonate]			530000
